# Measurements taken from ChEMBL document CHEMBL4507295 (2021).
# Assays:
# [1] = test system: Tyrosine-protein kinase ABL1 (Homo sapiens), P00519 [F317I]; conditions: Compound concentration 1000.0 nM
# [2] = test system: Tyrosine-protein kinase ABL1 (Homo sapiens), P00519 [F317L]; conditions: Compound concentration 1000.0 nM
# [3] = molecular target: Cytoplasmic tyrosine-protein kinase BMX (Homo sapiens) (UniProt P51813); conditions: Compound concentration 1000.0 nM
# [4] = molecular target: Cyclin-dependent kinase 19 (Homo sapiens) (UniProt Q9BWU1); conditions: Compound concentration 1000.0 nM
# [5] = molecular target: Cyclin-dependent kinase 9 (Homo sapiens) (UniProt P50750); conditions: Compound concentration 1000.0 nM
# Chain of Cyclin-dependent kinase 9 (Homo sapiens) (P50750 whole entry, the tested form may be a part): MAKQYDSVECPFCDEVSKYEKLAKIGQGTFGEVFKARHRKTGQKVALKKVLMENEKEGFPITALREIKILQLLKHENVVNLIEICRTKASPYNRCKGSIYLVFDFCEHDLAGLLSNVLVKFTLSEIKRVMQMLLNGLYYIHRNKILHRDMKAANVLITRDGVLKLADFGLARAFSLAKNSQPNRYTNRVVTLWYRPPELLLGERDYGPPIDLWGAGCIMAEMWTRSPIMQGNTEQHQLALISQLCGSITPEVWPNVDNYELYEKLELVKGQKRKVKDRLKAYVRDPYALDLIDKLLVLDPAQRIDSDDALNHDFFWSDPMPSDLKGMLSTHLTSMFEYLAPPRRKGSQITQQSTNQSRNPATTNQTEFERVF
# [6] = molecular target: Discoidin domain-containing receptor 2 (Homo sapiens) (UniProt Q16832); conditions: Compound concentration 1000.0 nM
# [7] = test system: Epidermal growth factor receptor (Homo sapiens), P00533 [UNDEFINED MUTATION]; conditions: Compound concentration 1000.0 nM
# [8] = molecular target: Tyrosine-protein kinase Fes/Fps (Homo sapiens) (UniProt P07332); conditions: Compound concentration 1000.0 nM
# [9] = molecular target: Tyrosine-protein kinase FRK (Homo sapiens) (UniProt P42685); conditions: Compound concentration 1000.0 nM
# Chain of Tyrosine-protein kinase FRK (Homo sapiens) (P42685 whole entry): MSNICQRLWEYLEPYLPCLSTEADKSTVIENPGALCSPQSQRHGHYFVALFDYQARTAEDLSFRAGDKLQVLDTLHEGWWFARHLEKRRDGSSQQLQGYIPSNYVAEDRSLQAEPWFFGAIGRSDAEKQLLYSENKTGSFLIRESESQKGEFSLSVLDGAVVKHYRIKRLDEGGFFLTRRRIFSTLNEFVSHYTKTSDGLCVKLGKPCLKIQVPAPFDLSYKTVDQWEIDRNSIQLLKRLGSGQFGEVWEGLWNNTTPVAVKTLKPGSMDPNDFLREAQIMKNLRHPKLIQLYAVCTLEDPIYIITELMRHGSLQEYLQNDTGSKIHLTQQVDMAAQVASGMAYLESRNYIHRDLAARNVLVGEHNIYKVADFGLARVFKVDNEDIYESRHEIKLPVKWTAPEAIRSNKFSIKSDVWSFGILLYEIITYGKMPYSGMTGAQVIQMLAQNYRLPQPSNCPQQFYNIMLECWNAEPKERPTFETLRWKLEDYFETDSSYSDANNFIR
# [10] = molecular target: Mitogen-activated protein kinase kinase kinase 3 (Homo sapiens) (UniProt Q99759); conditions: Compound concentration 1000.0 nM
# [11] = molecular target: MAP kinase-activated protein kinase 5 (Homo sapiens) (UniProt Q8IW41); conditions: Compound concentration 1000.0 nM
# Chain of MAP kinase-activated protein kinase 5 (Homo sapiens) (Q8IW41 whole entry): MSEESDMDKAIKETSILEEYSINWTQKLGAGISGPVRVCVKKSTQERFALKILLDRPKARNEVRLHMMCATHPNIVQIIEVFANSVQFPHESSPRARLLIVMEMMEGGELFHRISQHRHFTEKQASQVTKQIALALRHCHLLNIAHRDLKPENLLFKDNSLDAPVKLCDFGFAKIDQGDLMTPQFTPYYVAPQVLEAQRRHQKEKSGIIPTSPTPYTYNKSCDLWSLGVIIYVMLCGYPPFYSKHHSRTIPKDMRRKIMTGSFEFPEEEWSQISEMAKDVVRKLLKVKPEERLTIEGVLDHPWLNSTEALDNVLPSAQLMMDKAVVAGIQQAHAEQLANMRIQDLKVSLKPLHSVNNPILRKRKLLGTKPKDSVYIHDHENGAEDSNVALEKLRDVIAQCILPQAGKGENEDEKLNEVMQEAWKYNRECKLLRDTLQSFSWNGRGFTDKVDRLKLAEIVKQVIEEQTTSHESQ
# [12] = molecular target: Dual specificity mitogen-activated protein kinase kinase 1 (Homo sapiens) (UniProt Q02750); conditions: Compound concentration 1000.0 nM
# [13] = molecular target: Dual specificity mitogen-activated protein kinase kinase 2 (Homo sapiens) (UniProt P36507); conditions: Compound concentration 1000.0 nM
# [14] = molecular target: Tyrosine-protein kinase Mer (Homo sapiens) (UniProt Q12866); conditions: Compound concentration 1000.0 nM
# [15] = molecular target: Serine/threonine-protein kinase mTOR (Homo sapiens) (UniProt P42345); conditions: Compound concentration 1000.0 nM
# [16] = molecular target: Serine/threonine-protein kinase 38-like (Homo sapiens) (UniProt Q9Y2H1); conditions: Compound concentration 1000.0 nM
# Chain of Serine/threonine-protein kinase 38-like (Homo sapiens) (Q9Y2H1 2-464 limits assumed): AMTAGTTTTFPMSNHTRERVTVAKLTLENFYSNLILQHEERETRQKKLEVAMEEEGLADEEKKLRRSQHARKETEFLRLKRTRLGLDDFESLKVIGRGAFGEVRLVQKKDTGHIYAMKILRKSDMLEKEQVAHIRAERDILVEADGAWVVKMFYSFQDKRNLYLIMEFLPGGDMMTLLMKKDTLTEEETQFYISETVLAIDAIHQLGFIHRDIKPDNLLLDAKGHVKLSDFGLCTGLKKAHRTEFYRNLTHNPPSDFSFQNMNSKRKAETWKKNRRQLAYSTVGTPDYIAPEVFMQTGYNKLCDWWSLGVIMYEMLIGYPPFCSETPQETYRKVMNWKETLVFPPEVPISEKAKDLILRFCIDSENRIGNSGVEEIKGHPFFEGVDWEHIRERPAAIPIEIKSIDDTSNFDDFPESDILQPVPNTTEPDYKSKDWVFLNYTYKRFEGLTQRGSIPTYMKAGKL
# [17] = molecular target: Serine/threonine-protein kinase Nek1 (Homo sapiens) (UniProt Q96PY6); conditions: Compound concentration 1000.0 nM
# [18] = molecular target: Serine/threonine-protein kinase Nek9 (Homo sapiens) (UniProt Q8TD19); conditions: Compound concentration 1000.0 nM
# Chain of Serine/threonine-protein kinase Nek9 (Homo sapiens) (Q8TD19 whole entry): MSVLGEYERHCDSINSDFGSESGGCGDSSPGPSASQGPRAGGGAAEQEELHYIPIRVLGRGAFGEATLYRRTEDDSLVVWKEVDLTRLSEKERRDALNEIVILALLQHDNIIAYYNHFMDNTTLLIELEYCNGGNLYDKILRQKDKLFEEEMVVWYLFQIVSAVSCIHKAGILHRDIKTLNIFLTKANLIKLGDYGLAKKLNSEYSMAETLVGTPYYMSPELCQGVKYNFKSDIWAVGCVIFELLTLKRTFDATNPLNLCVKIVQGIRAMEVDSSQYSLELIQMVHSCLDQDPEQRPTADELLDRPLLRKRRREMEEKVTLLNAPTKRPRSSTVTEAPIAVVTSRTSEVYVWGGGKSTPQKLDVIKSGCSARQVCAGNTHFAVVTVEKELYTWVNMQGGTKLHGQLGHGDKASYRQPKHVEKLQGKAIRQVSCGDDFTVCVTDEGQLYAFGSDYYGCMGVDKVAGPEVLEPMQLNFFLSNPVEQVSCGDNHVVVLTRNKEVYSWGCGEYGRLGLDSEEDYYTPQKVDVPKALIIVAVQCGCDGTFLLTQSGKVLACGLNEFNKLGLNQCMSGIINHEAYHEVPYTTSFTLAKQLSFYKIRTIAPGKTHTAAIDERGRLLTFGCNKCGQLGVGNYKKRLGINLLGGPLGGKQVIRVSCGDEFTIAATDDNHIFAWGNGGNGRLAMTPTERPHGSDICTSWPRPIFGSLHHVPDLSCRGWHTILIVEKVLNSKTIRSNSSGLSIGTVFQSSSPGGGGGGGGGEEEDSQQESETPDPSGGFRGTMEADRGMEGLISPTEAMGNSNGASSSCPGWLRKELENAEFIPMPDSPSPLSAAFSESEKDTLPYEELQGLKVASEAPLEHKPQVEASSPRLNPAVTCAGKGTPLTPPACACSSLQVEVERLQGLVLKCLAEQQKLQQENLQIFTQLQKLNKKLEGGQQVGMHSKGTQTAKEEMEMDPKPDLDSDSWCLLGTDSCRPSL
# [19] = molecular target: Cyclin-dependent kinase 14 (Homo sapiens) (UniProt O94921); conditions: Compound concentration 1000.0 nM
# [20] = molecular target: Phosphorylase b kinase gamma catalytic chain, skeletal muscle/heart isoform (Homo sapiens) (UniProt Q16816); conditions: Compound concentration 1000.0 nM
# [21] = molecular target: Phosphatidylinositol 4,5-bisphosphate 3-kinase catalytic subunit alpha isoform (Homo sapiens) (UniProt P42336); conditions: Compound concentration 1000.0 nM
# [22] = test system: Phosphatidylinositol 4,5-bisphosphate 3-kinase catalytic subunit alpha isoform (Homo sapiens), P42336 [C420R]; conditions: Compound concentration 1000.0 nM
# [23] = test system: Phosphatidylinositol 4,5-bisphosphate 3-kinase catalytic subunit alpha isoform (Homo sapiens), P42336 [H1047Y]; conditions: Compound concentration 1000.0 nM
# [24] = test system: Phosphatidylinositol 4,5-bisphosphate 3-kinase catalytic subunit alpha isoform (Homo sapiens), P42336 [I800L]; conditions: Compound concentration 1000.0 nM
# [25] = molecular target: Phosphatidylinositol 4-phosphate 5-kinase type-1 gamma (Homo sapiens) (UniProt O60331); conditions: Compound concentration 1000.0 nM
# [26] = test system: Proto-oncogene tyrosine-protein kinase receptor Ret (Homo sapiens), P07949 [M918T]; conditions: Compound concentration 1000.0 nM
# Chain of Proto-oncogene tyrosine-protein kinase receptor Ret (Homo sapiens), P07949 [M918T] (P07949 whole entry M918T): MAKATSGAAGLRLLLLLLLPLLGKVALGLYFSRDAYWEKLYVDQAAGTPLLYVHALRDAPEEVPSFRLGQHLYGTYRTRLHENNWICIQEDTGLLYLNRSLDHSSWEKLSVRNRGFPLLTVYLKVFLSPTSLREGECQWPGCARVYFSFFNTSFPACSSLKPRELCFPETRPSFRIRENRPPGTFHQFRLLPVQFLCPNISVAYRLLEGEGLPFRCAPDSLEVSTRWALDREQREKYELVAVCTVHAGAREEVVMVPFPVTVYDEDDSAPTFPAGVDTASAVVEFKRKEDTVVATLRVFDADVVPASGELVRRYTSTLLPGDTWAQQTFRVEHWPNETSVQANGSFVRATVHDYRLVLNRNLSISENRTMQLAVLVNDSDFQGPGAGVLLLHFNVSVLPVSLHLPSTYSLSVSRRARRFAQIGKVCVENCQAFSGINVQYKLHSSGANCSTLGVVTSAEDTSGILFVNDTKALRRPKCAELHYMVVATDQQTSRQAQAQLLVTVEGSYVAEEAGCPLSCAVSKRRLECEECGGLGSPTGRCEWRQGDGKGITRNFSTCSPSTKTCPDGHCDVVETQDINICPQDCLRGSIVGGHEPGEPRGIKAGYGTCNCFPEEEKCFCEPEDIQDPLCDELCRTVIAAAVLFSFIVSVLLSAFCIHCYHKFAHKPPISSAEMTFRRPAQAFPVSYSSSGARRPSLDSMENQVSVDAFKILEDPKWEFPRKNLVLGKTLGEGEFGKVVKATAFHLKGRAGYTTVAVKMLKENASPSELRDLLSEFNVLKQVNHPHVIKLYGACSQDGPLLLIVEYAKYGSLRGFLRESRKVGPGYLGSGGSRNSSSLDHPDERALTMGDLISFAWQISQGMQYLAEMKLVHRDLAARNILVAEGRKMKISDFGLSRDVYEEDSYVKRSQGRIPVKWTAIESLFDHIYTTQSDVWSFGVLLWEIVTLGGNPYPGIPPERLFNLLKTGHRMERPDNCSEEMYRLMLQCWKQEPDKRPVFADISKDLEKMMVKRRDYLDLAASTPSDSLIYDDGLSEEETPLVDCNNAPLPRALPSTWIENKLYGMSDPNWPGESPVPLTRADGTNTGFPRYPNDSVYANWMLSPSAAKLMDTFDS
# [27] = molecular target: Receptor-interacting serine/threonine-protein kinase 1 (Homo sapiens) (UniProt Q13546); conditions: Compound concentration 1000.0 nM
# [28] = molecular target: Ribosomal protein S6 kinase alpha-5 (Homo sapiens) (UniProt O75582); conditions: Compound concentration 1000.0 nM
# [29] = molecular target: Ribosomal protein S6 kinase alpha-1 (Homo sapiens) (UniProt Q15418); conditions: Compound concentration 1000.0 nM
# [30] = molecular target: Ribosomal protein S6 kinase alpha-6 (Homo sapiens) (UniProt Q9UK32); conditions: Compound concentration 1000.0 nM
# [31] = molecular target: Ribosomal protein S6 kinase beta-1 (Homo sapiens) (UniProt P23443); conditions: Compound concentration 1000.0 nM
# [32] = molecular target: Uncharacterized serine/threonine-protein kinase SBK3 (Homo sapiens) (UniProt P0C264); conditions: Compound concentration 1000.0 nM
# [33] = molecular target: Tyrosine-protein kinase receptor TYRO3 (Homo sapiens) (UniProt Q06418); conditions: Compound concentration 1000.0 nM
# Chain of Tyrosine-protein kinase receptor TYRO3 (Homo sapiens) (Q06418 whole entry): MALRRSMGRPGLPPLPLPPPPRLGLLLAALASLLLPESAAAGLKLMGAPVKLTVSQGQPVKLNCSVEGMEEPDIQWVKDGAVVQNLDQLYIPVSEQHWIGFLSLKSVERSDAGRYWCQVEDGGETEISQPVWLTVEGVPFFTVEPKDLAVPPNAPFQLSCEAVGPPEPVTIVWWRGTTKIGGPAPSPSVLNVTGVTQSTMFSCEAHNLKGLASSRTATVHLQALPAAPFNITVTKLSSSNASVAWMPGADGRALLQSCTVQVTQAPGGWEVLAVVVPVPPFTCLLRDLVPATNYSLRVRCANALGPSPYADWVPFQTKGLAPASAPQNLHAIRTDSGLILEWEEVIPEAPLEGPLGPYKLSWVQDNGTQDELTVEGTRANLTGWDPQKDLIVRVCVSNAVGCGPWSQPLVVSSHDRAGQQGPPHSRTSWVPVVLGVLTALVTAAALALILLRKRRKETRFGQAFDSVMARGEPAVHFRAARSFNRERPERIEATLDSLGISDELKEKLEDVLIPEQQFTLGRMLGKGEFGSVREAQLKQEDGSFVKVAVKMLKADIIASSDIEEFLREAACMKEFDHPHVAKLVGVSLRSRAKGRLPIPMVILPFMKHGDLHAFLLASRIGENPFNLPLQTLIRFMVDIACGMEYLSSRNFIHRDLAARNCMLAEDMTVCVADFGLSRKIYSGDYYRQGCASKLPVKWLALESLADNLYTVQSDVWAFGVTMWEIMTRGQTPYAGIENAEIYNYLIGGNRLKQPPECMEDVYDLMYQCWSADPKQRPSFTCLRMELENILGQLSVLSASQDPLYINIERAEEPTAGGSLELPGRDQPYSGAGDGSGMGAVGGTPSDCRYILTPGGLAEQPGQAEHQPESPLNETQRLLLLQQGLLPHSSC
# [34] = molecular target: T1, 5-hydroxytryptamine receptor 1A (Homo sapiens) (UniProt P08908); conditions: Compound concentration 10.0 uM
# T1 sequence (whole entry): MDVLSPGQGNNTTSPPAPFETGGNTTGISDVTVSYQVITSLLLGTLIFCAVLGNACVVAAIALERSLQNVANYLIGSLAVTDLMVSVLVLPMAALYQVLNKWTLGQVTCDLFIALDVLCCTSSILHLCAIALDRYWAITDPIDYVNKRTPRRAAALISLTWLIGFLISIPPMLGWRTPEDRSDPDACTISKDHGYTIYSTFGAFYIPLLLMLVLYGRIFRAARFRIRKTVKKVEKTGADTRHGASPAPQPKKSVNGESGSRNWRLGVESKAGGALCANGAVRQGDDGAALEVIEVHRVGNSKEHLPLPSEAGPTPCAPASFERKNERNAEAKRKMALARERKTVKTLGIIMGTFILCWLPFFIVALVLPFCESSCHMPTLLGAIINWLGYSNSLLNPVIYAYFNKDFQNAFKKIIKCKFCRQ
# [35] = molecular target: Histamine H1 receptor (Homo sapiens) (UniProt P35367); conditions: Compound concentration 10.0 uM
# [36] = molecular target: Histamine H3 receptor (Homo sapiens) (UniProt Q9Y5N1); conditions: Compound concentration 10.0 uM
# [37] = molecular target: GABA-A receptor; anion channel (Rattus norvegicus) (UniProt O09028+P15431+P18506+P18508+P19969+P20236+P23574+P23576+P28471+P28473+P30191+P62813+P63079+P63138+Q91ZM7+Q9ES14); conditions: Compound concentration 10.0 uM
Structure (SMILES),residual activity [1] [%],residual activity [2] [%],residual activity [3] [%],residual activity [4] [%],residual activity [5] [%],residual activity [6] [%],residual activity [7] [%],residual activity [8] [%],residual activity [9] [%],residual activity [10] [%],residual activity [11] [%],residual activity [12] [%],residual activity [13] [%],residual activity [14] [%],residual activity [15] [%],residual activity [16] [%],residual activity [17] [%],residual activity [18] [%],residual activity [19] [%],residual activity [20] [%],further results
N#CC1(c2ccccn2)CCN(Cc2cc(C(=O)O)c(=O)n3ccccc23)CC1 [MSD-M1PAM],81,84,88,82,99,100,97,99,100,77,56,95,100,100,90,80,100,100,100,100,residual activity [21]: 100%; residual activity [22]: 97%; residual activity [23]: 100%; residual activity [24]: 90%; residual activity [25]: 89%; residual activity [26]: 100%; residual activity [27]: 100%; residual activity [28]: 83%; residual activity [29]: 100%; residual activity [30]: 97%; residual activity [31]: 96%; residual activity [32]: 72%; residual activity [33]: 98%; inhibition [34]: 21%; inhibition [35]: 28.4%; inhibition [36]: 4.08%; inhibition [37]: 8.92%
N#CC1(c2ccccn2)CCN(Cc2cc(C(=O)N3CCCC3)c(=O)n3ccccc23)CC1,75,100,84,75,88,100,77,99,80,92,100,100,91,86,58,90,91,99,100,100,residual activity [21]: 80%; residual activity [22]: 87%; residual activity [23]: 64%; residual activity [24]: 72%; residual activity [25]: 68%; residual activity [26]: 88%; residual activity [27]: 100%; residual activity [28]: 90%; residual activity [29]: 79%; residual activity [30]: 91%; residual activity [31]: 34%; residual activity [32]: 100%; residual activity [33]: 78%; inhibition [34]: 26.7%; inhibition [35]: 9.7%; inhibition [36]: 11.2%; inhibition [37]: 21.8%
